Here are results for two molecules from patent US20080287653A1, “METHOD FOR PRODUCING INHIBITORS AND INHIBITORS FORMED THEREFROM” (THE UNIVERSITY OF AKRON, priority 2007, published 2008).

Molecules are shown by their SMILES. Non-standard residues stand in square brackets, D forms with d. Residues, ends and D or L forms follow the SMILES beside them. Lys(Thioacetyl) = CC(=S)NCCCC[C@H](N)C(=O)O

Holding throughout (assay type): biochemical
For one experiment, the target named is T1, SIRT1 (Homo sapiens, UniProt Q96EB6).
T1 construct: made in house
T1 sequence (Q96EB6 1-747): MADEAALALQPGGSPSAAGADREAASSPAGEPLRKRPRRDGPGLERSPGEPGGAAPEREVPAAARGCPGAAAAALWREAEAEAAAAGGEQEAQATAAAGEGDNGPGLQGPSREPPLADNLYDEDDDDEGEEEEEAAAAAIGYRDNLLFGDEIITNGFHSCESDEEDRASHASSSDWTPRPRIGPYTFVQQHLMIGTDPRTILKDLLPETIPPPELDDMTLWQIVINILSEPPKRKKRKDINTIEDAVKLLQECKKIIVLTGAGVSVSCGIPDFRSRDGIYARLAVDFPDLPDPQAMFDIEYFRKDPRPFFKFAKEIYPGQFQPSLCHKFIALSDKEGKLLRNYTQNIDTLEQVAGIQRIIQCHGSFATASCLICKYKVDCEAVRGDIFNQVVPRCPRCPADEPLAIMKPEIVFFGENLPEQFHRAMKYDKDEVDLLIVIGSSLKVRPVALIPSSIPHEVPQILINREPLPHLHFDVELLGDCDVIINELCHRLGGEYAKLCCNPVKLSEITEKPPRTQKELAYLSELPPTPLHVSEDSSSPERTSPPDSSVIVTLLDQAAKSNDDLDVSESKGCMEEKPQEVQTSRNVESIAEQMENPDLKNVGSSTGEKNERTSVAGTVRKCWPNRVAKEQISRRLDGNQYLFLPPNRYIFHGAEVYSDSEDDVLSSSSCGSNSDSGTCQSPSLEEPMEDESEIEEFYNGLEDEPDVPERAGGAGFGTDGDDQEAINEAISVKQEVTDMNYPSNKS
The experiment can be described thus: HPLC-based SIRT1 inhibition assay with purified GST-SIRT1. How it is done: Inhibition assays with purified SIRT1, SIRT2, and SIRT3. GST-SIRT1 that could be produced in a laboratory was used for the SIRT1 inhibition assay. SIRT2 and SIRT3 are obtainable from commercial sources known to those skilled in the art. Consistent HPLC-based assay procedures were used for the inhibition assays with SIRT1, SIRT2, and SIRT3. […] An enzymatic reaction was initiated by the addition of an enzyme at 37° C. and was allowed to be incubated at 37° C.: 10 minutes as follows: for SIRT1 assay, or 60 minutes for SIRT2 and SIRT3 assays. Incubation was quenched at the indicated time with the following stop solution: 100 mM HCl and 0.16 M acetic acid. […] All peptide stock solutions were prepared in ddH2O. IC50 values were estimated from Dixon plots (1/v0 vs. [inhibitor]) as an indication of the inhibition potency.

In a further experiment the target is T2, SIRT2 (Homo sapiens, UniProt Q8IXJ6).
T2 construct: purchased
T2 sequence (Q8IXJ6 1-389): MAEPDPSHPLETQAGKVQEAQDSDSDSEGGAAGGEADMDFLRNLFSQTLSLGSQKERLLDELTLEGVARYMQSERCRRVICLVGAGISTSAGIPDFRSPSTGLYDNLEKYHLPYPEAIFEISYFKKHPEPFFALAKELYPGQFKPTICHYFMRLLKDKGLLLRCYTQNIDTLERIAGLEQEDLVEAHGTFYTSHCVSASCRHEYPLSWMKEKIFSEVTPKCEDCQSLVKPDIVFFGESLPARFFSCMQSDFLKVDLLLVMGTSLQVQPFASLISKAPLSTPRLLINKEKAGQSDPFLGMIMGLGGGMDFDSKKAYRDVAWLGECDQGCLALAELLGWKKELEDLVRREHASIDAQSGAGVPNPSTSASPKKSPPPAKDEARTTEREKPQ
The experiment can be described thus: HPLC-based SIRT2 inhibition assay with purified SIRT2. Conditions: SIRT2 vs SIRT3. How it is done: (§1) Inhibition assays with purified SIRT1, SIRT2, and SIRT3. GST-SIRT1 that could be produced in a laboratory was used for the SIRT1 inhibition assay. SIRT2 and SIRT3 are obtainable from commercial sources known to those skilled in the art. Consistent HPLC-based assay procedures were used for the inhibition assays with SIRT1, SIRT2, and SIRT3. In brief, an inhibition assay solution had the following components: 25 mM (or 50 mM for SIRT2 assay) Tris.HCl (pH 8.0) 137 mM NaCl, 2.7 mM KCl, 1 mM MgCl2, 1 mg/mL BSA (SIGMA Cat. #A3803 with reduced fatty acid content, for SIRT2 assay only), 0.5 mM β-NAD^+, 0.3 mM peptide substrate (peptide 1b for SIRT1 and SIRT2 assays; peptide 3b for SIRT3 assay), an inhibitor (peptide 1a, 2, or 3a) with varied concentrations including 0, and an enzyme (GST-SIRT1, 0.15 μM; SIRT2, 0.3 μM; or SIRT3, 2.0 μM). […] An enzymatic reaction was initiated by the addition of an enzyme at 37° C. and was allowed to be incubated at 37° C.: 10 minutes as follows: for SIRT1 assay, or 60 minutes for SIRT2 and SIRT3 assays. […] The enzymatic deacetylation products (peptide 1c in SIRT1 and SIRT2 assays; peptide 3c in SIRT3 assay) were confirmed by their comigration with the chemically synthesized authentic samples and by MALDI-TOF mass spectrometric analysis, and were quantified by HPLC peak integration and comparison with those of synthetic authentic samples. […]

For a further experiment, the target named is T3, SIRT3 (Homo sapiens, UniProt Q9NTG7).
T3 construct: purchased
T3 sequence (Q9NTG7 1-399): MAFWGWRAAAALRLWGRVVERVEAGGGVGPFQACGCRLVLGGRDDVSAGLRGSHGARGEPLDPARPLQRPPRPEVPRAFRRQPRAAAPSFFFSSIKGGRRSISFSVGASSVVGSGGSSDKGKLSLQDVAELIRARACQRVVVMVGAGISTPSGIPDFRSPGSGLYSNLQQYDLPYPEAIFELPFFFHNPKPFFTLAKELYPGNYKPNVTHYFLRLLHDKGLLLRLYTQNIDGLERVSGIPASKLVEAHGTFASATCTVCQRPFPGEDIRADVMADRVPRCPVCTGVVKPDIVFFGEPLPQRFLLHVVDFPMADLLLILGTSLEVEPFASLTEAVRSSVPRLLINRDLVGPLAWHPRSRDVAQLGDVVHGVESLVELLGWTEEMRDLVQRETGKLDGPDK
The experiment can be described thus: HPLC-based SIRT3 inhibition assay with purified SIRT3. Conditions: SIRT3 vs SIRT2. How it is done:
as §1

As for `CC[C@H](C)[C@H](NC(=O)[C@@H](NC(=O)[C@H](CCCCN)NC(=O)[C@H](CCCNC(=N)N)NC(=O)[C@H](CC(C)C)NC(=O)[C@H](CC(C)C)NC(=O)[C@H](CCCNC(=N)N)NC(=O)[C@H](CCCNC(=N)N)NC(=O)[C@H](CCSC)NC(=O)[C@@H](NC(=O)[C@H](CCCCNC(C)=S)NC(=O)CNC(=O)[C@H](CO)NC(=O)[C@H](CCCNC(=N)N)NC(=O)[C@@H](NC(=O)[C@H](CCCCN)NC(=O)[C@@H]1CCCN1C(=O)[C@H](CC(C)C)NC(=O)[C@H](CCCNC(=N)N)NC(=O)[C@@H](N)CCCCN)[C@@H](C)O)C(C)C)[C@@H](C)CC)C(=O)O` [Peptide 3a] (H-KRLPKTRSG[Lys(Thioacetyl)]VMRRLLRKII-OH), the “stronger inhibition with respect to SIRT1 than SIRT2 and SIRT3” value on SIRT1 (SIRT1 vs SIRT2 and SIRT3) is “about 5 fold”. Besides, the “inhibition potency for SIRT2 relative to SIRT3” value at SIRT2 is on record as “comparably potent inhibitor”.

With `CC[C@H](C)[C@H](NC(=O)[C@@H](NC(=O)[C@H](CCCCNC(C)=S)NC(=O)[C@H](CC(=O)O)NC(=O)[C@H](CO)NC(=O)[C@@H]1CCCN1C(=O)[C@@H](N)CCSC)[C@@H](C)O)C(=O)NCC(=O)NCC(=O)O` [Peptide 2] (H-MPSD[Lys(Thioacetyl)]TIGG-OH), the “inhibition weaker for SIRT1 as compared to SIRT2” value on SIRT1 (SIRT1 vs SIRT2) was “about 10 fold”. Also, the “inhibition weaker for SIRT3 as compared to SIRT2” value against SIRT3 is reported as “about 40 fold”.
